Measured values taken from patent US7368461B2 (AstraZeneca AB, priority 2001, dated 2008).
“And” between values parts separate entries of the source, which are not always exact repeats. Equal entries are not always repeated.

Tests used:
human NK2 receptors = molecular target: T1, human NK2 receptors (Homo sapiens, UniProt P21452); test: Receptor binding assay with [3H]NKA in membranes of MEL cells expressing cloned human NK2 receptors; settings: cloned hNK2 in MEL cell membranes; for Ki: read-out: hNK2 (Ki expressed as -Log Molar) (converted)
T1 construct: expressed in transfected cells; host or cells: MEL cells (murine erythroleukemia), membranes
T1 sequence (P21452 1-398): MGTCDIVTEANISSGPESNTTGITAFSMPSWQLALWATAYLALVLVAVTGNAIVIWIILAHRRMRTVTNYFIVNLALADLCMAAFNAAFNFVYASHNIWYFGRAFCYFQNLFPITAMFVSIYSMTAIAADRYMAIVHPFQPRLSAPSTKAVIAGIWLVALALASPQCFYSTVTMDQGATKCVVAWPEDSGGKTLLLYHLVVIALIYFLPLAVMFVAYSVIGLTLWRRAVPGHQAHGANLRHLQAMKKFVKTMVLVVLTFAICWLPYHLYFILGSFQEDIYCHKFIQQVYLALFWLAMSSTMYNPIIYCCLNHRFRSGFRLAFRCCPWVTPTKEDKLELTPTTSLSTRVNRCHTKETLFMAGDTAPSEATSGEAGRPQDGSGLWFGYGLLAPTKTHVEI
Method: (§1) Preparation of Membranes from MEL Cells Transfected with Cloned Human NK1 or NK2 receptors:
(§2) The cloning of the human lung NK1 and NK2 receptors was achieved as described by Hopkins, et al., Biochem. Biophys. Res. Commun. 180: 1110-1117 (1991), and Graham, et al., Biochem. Biophys. Res. Commun. 177: 8-16 (1991). Heterologous expression and scale-up growth of MEL cells transfected with human tachykinin receptors was performed as described for NK2 receptors by Aharony, et al., Mol. Pharmacol. 45: 9-19, 1994.
(§3) Membranes from recombinant MEL cells expressing NK1 or NK2 receptors were prepared as described by Hopkins, et al., (1991). Briefly, cells were homogenized at 4° C. (Brinkman PT-20 Polytron, setting 3, with one 15 sec burst on ice), in a buffer consisting of 50 mM Tris-HCl (pH7.4), 5 mM KCl, 120 mM NaCl, 10 mM EDTA and containing several protease inhibitors (1 mM phenylmethylsulfonylfluoride; 0.1 mg/ml soybean trypsin inhibitor, and 1 mM iodoacetamide). The homogenate was centrifuged at 1200×g for 45 min at 4° C. to remove cell debris. The supernatant was centrifuged at 48,000×g for 45 min at 4° C. The pellet was resuspended with a glass-Teflon motorized homogenizer in 30 volumes of ice-cold 50 mM Tris-HCl (pH 7.4) buffer.
(§4) Ligand binding assays with [^3H]NKA in MEL cells expressing cloned NK2 receptors or [^3H]SP in MEL cells expressing cloned NK1 receptors, were conducted generally as described by Aharony, et al., Mol. Pharmacol. 45: 9-19, 1994, Aharony, et al., Neuropeptides 23: 121-130 (1992) and Aharony, et al., J. Pharmacol. Exp. Ther. 259: 146-155(1991). In brief, incubations were carried out in assay buffer containing membranes, test compounds, and [^3H] ligand (1.0-1.5 nM). In competition experiments, mixtures (0.315 mL) containing various concentrations of competing agents (agonists, antagonists, or vehicle), were incubated at 25° C. for 30 min., with or without 1 μM unlabeled homogenous ligand (NKA or SP), to define non-specific binding. Reactions were initiated by adding membranes (0.1-0.15 mg protein/final concentration) and were conducted in duplicate. Saturation and kinetic experiments were conducted in triplicate. Separation of receptor-bound and free ligand was accomplished by dilution with 1 mL of wash buffer (20 mM Tris-HCl, pH 7.5) followed immediately by vacuum filtration with a total volume of 10 mL of wash buffer (utilizing a Brandel Cell Harvester MB-48R with Whatman GF/B filters presoaked in 0.1% polyethylenimine).
(§5) The ability of compounds disclosed herein to inhibit the binding of [^3H] ligand is shown by the results disclosed in Table 1.

human NK1 receptors = molecular target: T2, human NK1 receptors (Homo sapiens, UniProt P25103); test: Receptor binding assay with [3H]SP in membranes of MEL cells expressing cloned human NK1 receptors; settings: cloned hNK1 in MEL cell membranes; for Ki: read-out: hNK1 (Ki expressed as -Log Molar) (converted)
T2 construct: expressed in transfected cells; host or cells: MEL cells (murine erythroleukemia), membranes
Method: as §1, §2, §3, §4, §5

[1] = tested on: BANK-induced bladder contraction; test: BANK-induced bladder contraction in anesthetized guinea pigs; format: in vivo, guinea pig; settings: for Inhibition of BANK-mediated GP bladder contraction (% Inhibition mediated by 52 nM/kg administered orally): anesthetized female guinea pigs, 52 nM/kg orally by gavage 1 hr before BANK 3 nmol/kg iv, mean ± S.E.M.
Method: BANK-Induced Bladder Contraction in Anesthetized Guinea Pigs:
Female guinea pigs (300-450 g) were anesthetized by intramuscular administration of ketamine/xylazine mixture (3/10 mg/kg, respectively). The jugular vein was catheterized and the distal end of the catheter connected to a syringe for administration of compound where appropriate. Subsequently, the bladder was exposed through a midline abdominal incision, the ureters tied with 4-0 silk suture approximately 2 cm above the bladder, and cut above the ligature to allow drainage from the kidneys. Cannula were passed through the proximal urethra and bladder sphincter into the bladder lumen. The bladder was manually emptied, infused with 0.3 mL saline, and the catheter attached to a Gould p23 ID pressure transducer for recording changes in bladder pressure. An equilibration period of approximately 15 min was allowed for stabilization of the animals following surgical preparation. Thiorphan (10 mg/kg iv) was administered 15 minutes before agonist exposure to inhibit neutral endopeptidase 3.4.24.11.
The response was allowed to decay during a 15 min equilibration period before intravenous administration of test compound ([…], 5% PEG 400-saline vehicle). An additional 15 min equilibration period elapsed before administration of an equivalent dose of BANK was repeated. Preliminary studies were performed to establish equivalence of bladder contractile responses to multiple administrations of BANK. Effects were calculated as the percentage difference between the response to BANK in the presence and absence of test compounds.
To establish the oral effect of test compounds, animals were administered the test compounds (52 nmol/kg, 5% PEG 400-saline vehicle) by gavage 1 hr before administration of BANK. This was followed by intravenous administration of BANK (3 nmol/kg). Bladder contraction occurring in the presence or absence of test compound was recorded as an increase in intravesical bladder pressure on a Grass 7D Polygraph and expressed as percent inhibition of the BANK-mediated effect. Duration of action studies were performed following oral administration of test compounds ([…], 5% PEG 400-saline vehicle) at different times prior to administration of BANK. Responses were calculated as the percentage difference between the response to BANK in the presence of test compound compared with sham-treated controls. For all studies, each animal was administered a single dose of test compound. Experimental results were expressed as the mean plus or minus the Standard Error of the Mean (±S.E.M) percentage change from basal level.
The ability of compounds disclosed herein to inhibit bladder contractions induced with BANK is shown by the results disclosed in Table 1.

T2 sequence (P25103 whole entry): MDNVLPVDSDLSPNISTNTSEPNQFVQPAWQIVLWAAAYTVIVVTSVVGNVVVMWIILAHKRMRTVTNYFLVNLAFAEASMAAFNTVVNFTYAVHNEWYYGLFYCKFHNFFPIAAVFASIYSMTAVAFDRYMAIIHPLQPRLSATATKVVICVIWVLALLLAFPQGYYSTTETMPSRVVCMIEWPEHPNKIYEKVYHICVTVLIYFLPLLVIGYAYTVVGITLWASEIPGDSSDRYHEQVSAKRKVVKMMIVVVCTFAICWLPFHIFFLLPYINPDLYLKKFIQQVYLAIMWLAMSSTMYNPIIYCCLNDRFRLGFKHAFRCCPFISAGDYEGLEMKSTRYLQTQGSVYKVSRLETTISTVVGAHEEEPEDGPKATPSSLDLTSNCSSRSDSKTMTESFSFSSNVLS

Row | SMILES | Ki (human NK2 receptors) | Ki (human NK1 receptors) | Inhibition of BANK-mediated GP bladder contraction (% Inhibition mediated by 52 nM/kg administered orally) [1] | hNK2 (Ki expressed as -Log Molar) (human NK2 receptors) | hNK1 (Ki expressed as -Log Molar) (human NK1 receptors) | increase in the bladder contraction induced by BANK ([1]; guinea pig, as shown in Table 1 (52 nM/kg orally)) | inhibition at 10 µM (human NK1 receptors; 10 μM)
1 | CN(C[C@@H](CCN1CCC(N2CCCCC2=O)CC1)c1ccc(Cl)c(Cl)c1)C(=O)c1ccccc1F [Example 1, (S)—N-[2-(3,4-Dichloro-phenyl)-4-(2-oxo-[1,4′]bipiperidinyl-1′-yl)-butyl]-2-fluoro-N-methyl-benzamide] | 1.45 nM | 91.2 nM | 80% and 80 ± 6% |  |  |  | 
2 | CN(C[C@@H](CCN1CCC(N2CCCCC2=S)CC1)c1ccc(Cl)c(Cl)c1)C(=O)c1ccccc1 [Example 2, (S)—N-[2-(3,4-Dichlorophenyl)-4-[4-(2-thio-piperidin-1-yl)piperidino]butyl]-N-methylbenzamide] |  |  | 42 ± 13% | 8.73 -Log Molar | 7.22 -Log Molar |  | 
3 | CN(C[C@@H](CCN1CCC(N2CCCCC2=O)CC1)c1ccc(Cl)c(Cl)c1)C(=O)c1ccc(F)cc1 [Example 4, (S)—N-[2-(3,4-Dichlorophenyl)-4-[4-(2-oxo-piperidin-1-yl)piperidino]butyl]-N-methyl-4-fluorobenzamide] |  |  | −28 ± 45% |  |  | 28% | 
4 | CN(C[C@@H](CCN1CCC(N2CCCCC2=O)CC1)c1ccc(Cl)c(Cl)c1)C(=O)c1ccccc1 [Example 5, (S)—N-[2-(3,4-Dichlorophenyl)-4-[4-(2-oxo-piperidin-1-yl)piperidino]butyl]-N-methylbenzamide] | 3.31 nM | 427 nM |  |  |  |  | 
5 | CCNC(=O)C1(N2CCCCC2=O)CCN(CC[C@H](CN(C)C(=O)c2ccccc2)c2ccc(Cl)c(Cl)c2)CC1 [Example 6] | 0.2 nM |  | −65 ± 58% |  |  |  | 84%
